Data from ChEMBL document CHEMBL5649166, “RIP3 induces apoptosis independent of pronecrotic kinase activity” (Mol Cell, 2014).

How the values were obtained:
[1] = molecular target: T1, Dual specificity mitogen-activated protein kinase kinase 6 (Homo sapiens) (UniProt P52564); assay: Inhibition of human MKK6 using p38a (K53A) as substrate at 1 uM in presence of 32P-ATP by Hotspot assay relative to control; values are per cent of control
T1 sequence (whole entry): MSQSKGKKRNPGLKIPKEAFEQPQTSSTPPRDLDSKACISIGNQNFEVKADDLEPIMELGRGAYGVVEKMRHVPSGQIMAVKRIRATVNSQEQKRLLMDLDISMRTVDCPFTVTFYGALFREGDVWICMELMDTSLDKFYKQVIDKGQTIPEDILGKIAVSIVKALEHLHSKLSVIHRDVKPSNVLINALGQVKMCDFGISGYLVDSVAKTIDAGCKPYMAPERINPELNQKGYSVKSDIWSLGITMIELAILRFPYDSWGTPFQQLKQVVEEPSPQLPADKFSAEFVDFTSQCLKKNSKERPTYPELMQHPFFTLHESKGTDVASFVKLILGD

[2] = molecular target: PAS domain-containing serine/threonine-protein kinase (Homo sapiens) (UniProt Q96RG2); assay: Inhibition of human PASK using KKLNRTLSFAEPG as substrate at 1 uM in presence of 32P-ATP by Hotspot assay relative to control; values are per cent of control
[3] = molecular target: T2, Ephrin type-B receptor 2 (Homo sapiens) (UniProt P29323); assay: Inhibition of human EPHB2 using poly[Glu:Tyr] (4:1) as substrate at 1 uM in presence of 32P-ATP by Hotspot assay relative to control; values are per cent of control
T2 sequence (whole entry): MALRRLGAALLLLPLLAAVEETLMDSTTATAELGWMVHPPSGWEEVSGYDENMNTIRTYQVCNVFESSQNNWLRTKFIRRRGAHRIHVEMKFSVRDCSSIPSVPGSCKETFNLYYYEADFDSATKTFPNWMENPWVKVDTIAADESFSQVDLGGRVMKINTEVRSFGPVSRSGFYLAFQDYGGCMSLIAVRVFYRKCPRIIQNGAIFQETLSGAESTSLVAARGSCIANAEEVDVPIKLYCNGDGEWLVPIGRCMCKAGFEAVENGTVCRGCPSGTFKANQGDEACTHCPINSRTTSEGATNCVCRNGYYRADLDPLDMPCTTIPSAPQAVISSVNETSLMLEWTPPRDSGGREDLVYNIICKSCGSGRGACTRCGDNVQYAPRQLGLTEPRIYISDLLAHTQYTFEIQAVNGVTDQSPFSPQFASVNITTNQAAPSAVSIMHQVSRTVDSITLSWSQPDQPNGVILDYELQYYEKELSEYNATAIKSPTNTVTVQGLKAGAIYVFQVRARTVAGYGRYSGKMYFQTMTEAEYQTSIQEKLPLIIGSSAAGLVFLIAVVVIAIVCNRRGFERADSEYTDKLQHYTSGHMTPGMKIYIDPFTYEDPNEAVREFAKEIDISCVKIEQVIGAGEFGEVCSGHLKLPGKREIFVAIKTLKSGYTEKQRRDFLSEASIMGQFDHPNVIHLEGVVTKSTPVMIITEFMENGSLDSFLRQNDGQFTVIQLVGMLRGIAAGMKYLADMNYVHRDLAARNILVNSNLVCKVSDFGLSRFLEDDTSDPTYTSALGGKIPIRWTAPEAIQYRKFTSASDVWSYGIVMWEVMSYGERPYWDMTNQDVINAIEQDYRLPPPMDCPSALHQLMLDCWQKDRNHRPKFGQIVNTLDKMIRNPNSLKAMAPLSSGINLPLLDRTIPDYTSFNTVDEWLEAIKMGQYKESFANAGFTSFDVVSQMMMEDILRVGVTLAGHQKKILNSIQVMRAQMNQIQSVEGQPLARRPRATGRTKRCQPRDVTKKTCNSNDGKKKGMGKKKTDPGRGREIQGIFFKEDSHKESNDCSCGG

[4] = molecular target: T3, Dual serine/threonine and tyrosine protein kinase (Homo sapiens) (UniProt Q6XUX3); assay: Inhibition of human RIPK5 using myelin basic protein as substrate at 1 uM in presence of 32P-ATP by Hotspot assay relative to control; values are per cent of control
T3 sequence (whole entry): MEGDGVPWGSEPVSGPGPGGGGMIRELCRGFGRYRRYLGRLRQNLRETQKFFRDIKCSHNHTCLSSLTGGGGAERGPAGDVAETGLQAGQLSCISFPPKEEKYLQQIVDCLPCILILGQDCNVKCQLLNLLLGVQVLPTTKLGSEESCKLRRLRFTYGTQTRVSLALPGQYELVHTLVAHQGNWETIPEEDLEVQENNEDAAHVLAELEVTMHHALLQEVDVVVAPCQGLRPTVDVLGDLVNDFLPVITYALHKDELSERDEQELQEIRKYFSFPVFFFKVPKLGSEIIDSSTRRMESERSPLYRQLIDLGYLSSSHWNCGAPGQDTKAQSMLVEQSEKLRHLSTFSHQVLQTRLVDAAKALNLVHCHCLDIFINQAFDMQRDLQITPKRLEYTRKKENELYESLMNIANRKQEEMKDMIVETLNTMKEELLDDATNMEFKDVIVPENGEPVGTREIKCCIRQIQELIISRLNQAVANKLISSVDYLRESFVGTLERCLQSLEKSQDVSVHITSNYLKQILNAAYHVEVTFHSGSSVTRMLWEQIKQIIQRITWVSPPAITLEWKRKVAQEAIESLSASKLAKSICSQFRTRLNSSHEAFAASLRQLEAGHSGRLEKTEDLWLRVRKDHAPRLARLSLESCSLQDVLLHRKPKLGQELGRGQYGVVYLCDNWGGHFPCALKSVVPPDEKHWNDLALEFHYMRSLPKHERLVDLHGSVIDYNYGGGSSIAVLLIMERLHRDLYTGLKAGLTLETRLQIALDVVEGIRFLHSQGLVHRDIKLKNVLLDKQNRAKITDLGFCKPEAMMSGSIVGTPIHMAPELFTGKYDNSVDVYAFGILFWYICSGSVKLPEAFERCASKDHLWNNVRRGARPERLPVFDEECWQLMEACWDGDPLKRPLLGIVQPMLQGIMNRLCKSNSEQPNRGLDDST

PAS domain-containing serine/threonine-protein kinase (Homo sapiens), sequence (Q96RG2 whole entry, the tested form may be a part): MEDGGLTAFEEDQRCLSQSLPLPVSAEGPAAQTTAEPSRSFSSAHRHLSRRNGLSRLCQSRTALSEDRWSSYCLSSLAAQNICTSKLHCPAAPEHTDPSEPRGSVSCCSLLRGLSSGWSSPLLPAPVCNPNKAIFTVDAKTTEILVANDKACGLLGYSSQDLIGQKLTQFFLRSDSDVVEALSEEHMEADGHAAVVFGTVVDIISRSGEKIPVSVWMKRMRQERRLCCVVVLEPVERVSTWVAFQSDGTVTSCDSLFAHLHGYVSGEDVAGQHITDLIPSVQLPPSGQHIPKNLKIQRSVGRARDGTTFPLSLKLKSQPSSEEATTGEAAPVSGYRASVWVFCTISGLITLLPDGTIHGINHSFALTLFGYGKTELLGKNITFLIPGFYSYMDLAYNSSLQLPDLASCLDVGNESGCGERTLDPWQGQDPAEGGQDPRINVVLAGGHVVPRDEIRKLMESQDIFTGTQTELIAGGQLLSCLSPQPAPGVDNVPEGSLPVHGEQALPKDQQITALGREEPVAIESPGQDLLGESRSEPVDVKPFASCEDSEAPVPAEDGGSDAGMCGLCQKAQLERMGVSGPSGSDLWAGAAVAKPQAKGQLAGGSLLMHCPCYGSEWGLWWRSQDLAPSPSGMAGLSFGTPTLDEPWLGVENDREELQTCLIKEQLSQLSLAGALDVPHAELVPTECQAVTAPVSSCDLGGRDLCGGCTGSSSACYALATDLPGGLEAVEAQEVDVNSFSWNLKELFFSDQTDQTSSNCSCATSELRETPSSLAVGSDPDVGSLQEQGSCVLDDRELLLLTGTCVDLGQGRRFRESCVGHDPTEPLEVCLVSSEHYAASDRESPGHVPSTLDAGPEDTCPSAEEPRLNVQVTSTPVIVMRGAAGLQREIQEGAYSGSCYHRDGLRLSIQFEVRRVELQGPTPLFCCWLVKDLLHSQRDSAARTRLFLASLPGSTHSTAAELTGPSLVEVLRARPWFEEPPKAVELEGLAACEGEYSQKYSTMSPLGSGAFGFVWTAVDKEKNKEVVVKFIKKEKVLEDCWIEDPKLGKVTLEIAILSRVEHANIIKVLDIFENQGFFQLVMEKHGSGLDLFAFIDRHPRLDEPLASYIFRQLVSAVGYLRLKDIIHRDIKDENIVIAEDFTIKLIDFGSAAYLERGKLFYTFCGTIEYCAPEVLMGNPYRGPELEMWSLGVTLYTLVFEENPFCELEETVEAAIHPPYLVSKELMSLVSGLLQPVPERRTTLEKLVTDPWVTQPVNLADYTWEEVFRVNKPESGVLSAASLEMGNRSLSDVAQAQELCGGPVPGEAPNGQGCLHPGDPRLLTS

Row | Compound | residual activity [1] [%] | residual activity [2] [%] | residual activity [3] [%] | residual activity [4] [%]
1 | Cc1cc(-c2cnc(N)c3c(-c4ccc5scnc5c4)csc23)n(C)n1 | 92.9 | 93.1 | 31 | 101
2 | CC(C)S(=O)(=O)c1ccc2nccc(Nc3ccc4scnc4c3)c2c1 | 91.3 | 96.5 | 78.7 | 106
3 | CNC(=O)c1ccc2c(c1)ncn2-c1ccc(CC(=O)OC(C)(C)C)cc1 | 98.5 | 99.8 | 95 | 95.6
